Measurements: patent EP4744665A1, “COMBINATION OF POLQ INHIBITOR COMPOUND AND ANTI-CANCER THERAPEUTIC AGENT OR RADIOTHERAPY” (Simcere Zaiming Pharmaceutical Co., Ltd., priority 2023, dated 2025)

Legend:
[1] = biological target: T1, N-terminal active peptide segment of POLQ with ATPase activity (M1-N899) (Homo sapiens, UniProt O75417); assay: POLQ enzyme activity inhibition experiment (ATPase, NADH oxidation-coupled, OD 340 nm); type: biochemical
T1 construct: N-terminal active peptide segment of POLQ with ATPase activity (M1-N899)
T1 sequence (O75417 1-899): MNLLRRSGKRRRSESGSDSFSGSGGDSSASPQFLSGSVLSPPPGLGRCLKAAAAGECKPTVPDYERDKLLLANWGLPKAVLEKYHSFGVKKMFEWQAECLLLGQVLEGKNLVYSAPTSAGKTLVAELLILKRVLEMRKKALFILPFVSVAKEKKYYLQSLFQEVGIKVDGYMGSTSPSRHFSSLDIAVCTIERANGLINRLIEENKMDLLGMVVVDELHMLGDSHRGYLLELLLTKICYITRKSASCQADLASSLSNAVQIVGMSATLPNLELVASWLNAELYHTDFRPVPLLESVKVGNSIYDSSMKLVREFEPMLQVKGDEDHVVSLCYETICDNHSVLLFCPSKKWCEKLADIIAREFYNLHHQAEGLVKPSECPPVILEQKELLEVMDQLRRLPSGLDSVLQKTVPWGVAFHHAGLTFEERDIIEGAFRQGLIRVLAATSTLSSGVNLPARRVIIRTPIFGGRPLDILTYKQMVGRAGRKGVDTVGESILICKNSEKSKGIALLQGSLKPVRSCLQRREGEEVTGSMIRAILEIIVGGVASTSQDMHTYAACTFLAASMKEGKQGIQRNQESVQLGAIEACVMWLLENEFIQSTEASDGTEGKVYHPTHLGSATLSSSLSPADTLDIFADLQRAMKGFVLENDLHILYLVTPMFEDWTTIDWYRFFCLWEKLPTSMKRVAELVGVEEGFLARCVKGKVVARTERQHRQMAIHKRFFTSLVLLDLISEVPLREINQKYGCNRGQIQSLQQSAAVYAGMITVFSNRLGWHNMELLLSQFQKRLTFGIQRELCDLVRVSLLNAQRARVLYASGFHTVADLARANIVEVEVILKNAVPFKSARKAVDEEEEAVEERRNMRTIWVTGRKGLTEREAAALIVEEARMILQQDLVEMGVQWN
Experimental: Brief introduction to experimental principle: After the N-terminal active peptide segment of POLQ with ATPase activity (M1-N899) is co-incubated with the compound, this peptide segment reacts with substrate dT50 under the action of ATP to generate ADP. The generated ADP then participates in the subsequent NADH oxidation-coupled enzymatic reaction, catalyzing the conversion of NADH to NAD^+. The reduction in the OD value of NADH at 340 nm was measured using the Envision microplate reader from Perkin Elmer to reflect enzyme activity. Experimental instruments: Labcyte Echo 650 pipetting system; Perkin Elmer Envision microplate reader; Eppendorf 5810R centrifuge; Boxun BSD-YX3400 thermostatic shaker.
Experimental methods: The POLQ enzyme was diluted to 100 nM with a reaction buffer (20 mM Tris HCl (pH 7.80), 80 mM KCl, 10 mM MgCl2, 1 mM DTT, 0.01% w/v bovine serum albumin, 0.01% v/v Tween-20, 5% v/v glycerol). The test compound was diluted to different concentrations with dimethyl sulfoxide (DMSO) using an Echo 650 pipetting system and transferred to a 384-well plate, 20 µL/well of 100 nM POLQ was added, and the mixture was incubated at room temperature for 15 min. A reaction mixture solution was prepared with the concentrations of each component in the reaction mixture solution as follows: 100 µM ATP, 300 nM dT50, 300 µM NADH, 6 mM PEP, 10 U/mL lactate dehydrogenase, and 20 U/mL pyruvate kinase. 20 µL/well of the reaction mixture solution was added to start the enzyme reaction. In the reaction system, the compound was serially diluted 3-fold from the final concentration of 10 µM, covering a concentration range from 10 µM to 0.0005 µM, and the final concentration of DMSO in the system was 0.2% v/v. After the 384-well plate was reacted at room temperature for 20 min, the OD value at 340 nm was read using an Envision microplate reader.
(§1) Inhibition rates were calculated and fitted using XLfit software to give the IC50 of the compound.
A blank group and a DMSO group were set in the experiment. […]

[2] = test system: DLD-1 BRCA2 (-/-) cell line; assay: Inhibition of tumor cell proliferation, 7 days, CTG; type: cell-based; details: Homo sapiens, DLD-1, 168 h, 7 days incubation
Experimental: (§2) Brief introduction to experimental principle: After the compound was co-incubated with tumor cells for 7 days, the ATP in viable cells was quantified using the CTG kit from Promega to reflect the effect of the compound on tumor cell proliferation.
(§3) Experimental methods: DLD-1 parent cells or DLD-1 BRCA2 (-/-) cells were diluted with an RPMI 1640 medium containing 10% FBS and then added to a 96-well plate (90 µL/well), with the number of cells being 600/well or 1200/well, respectively, and incubated overnight in an incubator at 37 °C with 5% CO2. The test compound was diluted to different concentrations with dimethyl sulfoxide (DMSO) and then added to a 96-well plate, such that, in the reaction system, the compound was serially diluted 4-fold from the final concentration of 25 µM. The concentration range of the compound was from 25 µM to 0.0004 µM, and the final concentration of DMSO was 0.25% v/v. After incubation for 7 days, 50 µL/well of CTG was added, and the mixture was incubated at room temperature for 10 min. The luminescence (Lum) signal value was read using an Envision microplate reader, and the inhibition rate and half inhibitory concentration (IC50) were calculated.
as §1
(§4) A Blank well and a DMSO well were set in the experiment. The blank well contained 100 µL of an RPMI Medium 1640 medium containing 10% FBS, and the inhibition rate of the compound on tumor cell growth was considered to be 100% under this condition. For the DMSO well, 0.25% v/v DMSO was added to the cell-containing well, and the inhibition rate of the compound on tumor cell growth was considered to be 0 under this condition. Inhibition rate = 100 × (Lummax−Lumcompound)/(Lummax−Lummin)% [formula] wherein Lummax refers to the luminescence signal value of the well containing cells and 0.25% v/v DMSO, and Lumcompound refers to the luminescence signal value of the well containing the compound and cells. Lummin refers to the luminescence signal value of the well containing the medium and 0.25% v/v DMSO.

DLD-1 BRCA2 (-/-) = assay: Combined use with combination drug, matrix study, Bliss Independence model (Cell Titer Glo, 7 days); type: cell-based; details: combination with Olaparib (PARP inhibitor)
Experimental: (§5) DLD-1 colorectal adenocarcinoma cells, DLD-1 BRCA2 (-/-) colorectal adenocarcinoma cells, SHP-77 human small cell lung cancer cells, NCI-H82 human small cell lung cancer cells, LNCAP prostate cancer cells, KURAMOCHI human ovarian cancer cells, A2780 human ovarian cancer cells, and NCI-H23 non-small cell lung cancer cells were cultured in a 1640 medium containing 10% fetal bovine serum. SKOV3 human ovarian cancer cells were cultured in a McCoy's 5A (modified) medium containing 10% fetal bovine serum. OVCAR3 ovarian cancer cells were cultured in a 1640 medium containing 20% fetal bovine serum and 10 µg/mL bovine insulin. MDA-MB-436 breast cancer cells (natural BRCA1 mutation) and A549 non-small cell lung cancer cells were cultured in a DMEM medium containing 10% fetal bovine serum. Capan-1 human pancreatic cancer cells (natural BRCA2 mutation) were cultured in an IMDM medium containing 20% fetal bovine serum. The cells were all cultured at 37 °C with 5% CO2. Cells at the logarithmic growth phase were available for the experiment.
(§6) 100 µL of the cell medium was added to rows A and H and columns 1 and 12 of a 96-well cell culture plate. Cultured cells were resuspended (adherent cells were digested with trypsin) and counted to give information on cell density and viability. The dilution ratio of the resuspended cells required for inoculating a fixed number of cells into 80 µL of the medium in each culture well was calculated based on the cell density information. After the resuspended cells were diluted with the corresponding medium, 80 µL of the diluted cells were transferred to columns 2-11 of rows B-G of a 96-well cell culture plate using an Eppendorf multi-channel pipette (60 wells in total for each plate). The cell culture plate was incubated overnight in an incubator at 37 °C with 5% CO2.
(§7) The test compound and the combination compound were dissolved in DMSO to give a 10 mM solution for later use. In the experiment, the compound was further diluted to the corresponding concentration according to the concentration designed in the experiment, and based on this concentration, serial gradient dilution was performed. Matrix study was performed at 8 or 7 dose concentrations of the test compound (the lowest dose concentration was 0, and other specific concentration values were shown in FIG. 1) and 7 or 8 dose concentrations of the combination compound (the lowest dose concentration was 0, and other specific concentration values were shown in FIG. 1). 10 µL of each of the diluted combination compound and test compound was added to the corresponding cell plate well, such that the final concentration of DMSO was 0.25%. The test compound and the cells were incubated in an incubator at 37 °C with 5% CO2 for another 7 days, Cell Titer Glo was added at 50 µL/well, and the luminescence value of each well was read using an Envision microplate reader.
(§8) The luminescence value of the well containing only the cell medium was taken as the background (RLUbackground, corresponding cell survival rate to be 0%), the cell well containing only 0.25% DMSO without the compound was taken as the maximum signal (RLUDMSO, corresponding cell survival rate to be 100%), and the luminescence values of the remaining wells containing cells and compounds at different concentrations were taken as RLUsample. The survival rate of each cell well was calculated as follows: Survival rate (%) = (RLUsample−RLUbackground)/(RLUDMSO−RLUbackground) × 100% [formula]
(§9) The interaction between drugs (synergistic, independent, or antagonistic) was statistically analyzed by the Bliss Independence model using Combenefit software (Bliss, C.I., Bacteriol. Rev., 1956, 20, 243-258). The model assumes that each drug acts independently. The theoretical expected action curve of the combination was calculated from the following equation: Bliss effect = effect A + effect B−effect A × effect B [formula] wherein effect A and effect B are the effects of drugs A and B alone at specific concentrations. […]

DLD-1 parent cells = assay: Inhibition of tumor cell proliferation, 7 days, CTG; type: cell-based; details: Homo sapiens, DLD-1, 168 h, 7 days incubation
Experimental: as §2, §3, §1, §4

MDA-MB-436 = assay: Combined use with combination drug, matrix study, Bliss Independence model (Cell Titer Glo, 7 days); type: cell-based; details: combination with Niraparib (PARP inhibitor)
Experimental: as §5, §6, §7, §8, §9

In the case of `COc1ccc(Cl)cc1-c1cc(C)ncc1C(=O)Nc1nc2ncc(-c3ccc(C4CC4)cn3)nc2s1` [Compound III, 4-(5-Chloro-2-methoxyphenyl)-N-[6-(5-cyclopropylpyridin-2-yl)thiazolo[4,5-b]pyrazin-2-yl]-6-methylpyridine-3-carboxamide], the IC50 [1] is reported as less than 100 nM, the IC50 [2] is reported as less than 200 nM and the Combined effect (DLD-1 BRCA2 (-/-)) is reported as “Synergistic”.
`COc1cnc(C)cc1-c1cc(C)ncc1C(=O)Nc1nc2ncc(-c3ccc(C#N)cc3)nc2s1` [Compound II, N-(6-(4-Cyanophenyl)thiazolo[4,5-b]pyrazin-2-yl)-5'-methoxy-2',6-dimethyl-[4,4'-bipyridinyl]-3-carboxamide] showed an IC50 [1] of less than 100 nM, an IC50 [2] of less than 200 nM and an IC50 (DLD-1 parent cells) of no less than 10000 nM. For the same compound, the Combined effect (DLD-1 BRCA2 (-/-)) was “Synergistic” and the Combined effect (MDA-MB-436) was “Synergistic”.
Compound `COc1ccc(Cl)cc1-c1cc(C)ncc1C(=O)Nc1nc2ncc(-c3ccc(C#N)cc3)nc2s1` [Compound I, 4-(5-Chloro-2-methoxyphenyl)-N-[6-(4-cyanophenyl)thiazolo[4,5-b]pyrazin-2-yl]-6-methylnicotinamide] has an IC50 [1] of less than 100 nM, an IC50 [2] of less than 200 nM and an IC50 (DLD-1 parent cells) of no less than 10000 nM. For the same compound, the Combined effect (DLD-1 BRCA2 (-/-)) was “Synergistic” and the Combined effect (MDA-MB-436) was “Synergistic”.
